We go through eleven compounds from ChEMBL document CHEMBL1201862, “PubChem BioAssay data set” (2004).

Common to all, as to assay: DTP human tumour cell line panel, 48 h
For experiment [1], the system named is HOP-62.
The test system of experiment [2] is OVCAR-5.
For experiment [3], the system named is Malme-3M.
In experiment [4] the test system is 786-0.
Experiment [5] has as its system NCI-H522.
For experiment [6], the system named is SF-268.
Experiment [7] concerns IGROV-1.
Experiment [8] has as its system Hs-578T.
Experiment [9] deals with SN12C.
Experiment [10] concerns EKVX.
The subject of experiment [11] is HOP-92.
Experiment [12] concerns OVCAR-4.
Experiment [13] concerns SW-620.
Experiment [14] deals with M14.
Experiment [15] concerns SK-MEL-5.
The test system of experiment [16] is BT-549.
The test system of experiment [17] is HCT-116.
The test system of experiment [18] is U-251.
Experiment [19] relates to HCC 2998.

Molecules are shown by their SMILES.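 Compound exposure: 48 hours, 5 concentrations, 96-well plates. Here, GI50 denotes the concentration required for 50% inhibition of growth.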 Active and inactive are the calls of the source. Rule as the data show it: active = GI50 up to about 1.1 µM and inactive = higher. A value given as a limit tells only on which side of the number the result lay.

The GI50 is the concentration at which growth is held to half of that of the control. Turning to `CC[N+](C)(CC)CCN1C(=O)c2ccccc2S1(=O)=O`, the GI50 in experiment [1], in experiment [2], in [3], in experiment [4], in experiment [5] and in experiment [6] was > 100 µM (inactive) in each case. Besides, the GI50 in experiment [7], in experiment [8], in experiment [9], in [10], in experiment [11] and in experiment [12] was > 100 µM (inactive) each time. Also, the GI50 in experiment [13], in [14], in experiment [15], in experiment [16], in experiment [17] and in [18] was > 100 µM (inactive) each time.
Take `CC12CCC(CC1=O)C2(C)CCC(N)=O` (stereo not drawn): the GI50 in experiment [1], in [2], in experiment [3], in experiment [4], in [5] and in experiment [6] was > 100 µM (inactive) each time. Also, the GI50 in experiment [7], in [8], in [9], in [10], in experiment [12] and in experiment [13] was > 100 µM (inactive) each time. In addition, the GI50 in experiment [19], in experiment [14], in experiment [15], in experiment [16], in experiment [17] and in experiment [18] was > 100 µM (inactive) in each case.
As to `COc1cc(C2SCC(=O)N2NC(=O)c2ccc(NC(C)=O)cc2OC)ccc1O` (stereo not drawn), the GI50 is 4.12 µM (inactive) in experiment [1]; 23.1 µM (inactive) in [2]; > 100 µM (inactive) in experiment [3]; 31.3 µM (inactive) in experiment [4]; > 100 µM (inactive) in experiment [5]; 23.7 µM (inactive) in experiment [6]. The GI50 in experiment [7] was 58.2 µM (inactive); in experiment [8] it was > 100 µM (inactive); in experiment [9], 36.5 µM (inactive); in [10] it was 5.74 µM (inactive); in [11] it was 29.4 µM (inactive); in experiment [12], > 100 µM (inactive). For the same compound, the GI50 in experiment [13], in experiment [14], in experiment [16] and in [17] was > 100 µM (inactive) throughout.
For `Nc1nc2c(c(=O)[nH]1)N=C(COP(=O)(O)OP(=O)(O)O)CN2`, the GI50 in experiment [1], in [2], in [3], in experiment [4], in [5] and in [6] was > 100 µM (inactive) in each case. Further, the GI50 in [7], in experiment [8], in [9], in [10], in [13] and in experiment [19] was > 100 µM (inactive) in each case. Besides, the GI50 in experiment [14], in experiment [15], in experiment [16], in experiment [17] and in experiment [18] was > 100 µM (inactive) throughout.
With `FC(F)(F)c1cc(N(C2c3ccccc3C=Cc3ccccc32)P(Cl)Cl)cc(C(F)(F)F)c1`, the GI50 in experiment [1] was 17.6 µM (inactive); in experiment [2], 20 µM (inactive); in [3], 17.5 µM (inactive); in [4], 16.8 µM (inactive); in experiment [5] it was 14.1 µM (inactive); in experiment [6], 17.2 µM (inactive). The GI50 is 26.2 µM (inactive) in experiment [7]; 25.5 µM (inactive) in [8]; 16.9 µM (inactive) in [9]; 17.1 µM (inactive) in experiment [10]; 15.6 µM (inactive) in experiment [11]; 18.9 µM (inactive) in experiment [12]. Moreover, the GI50 in experiment [13] is 25.4 µM (inactive); in experiment [14], 22.8 µM (inactive); in experiment [15], 18.1 µM (inactive); in experiment [16], 0.706 µM (active); in [17], 16.5 µM (inactive); in experiment [18], 17.8 µM (inactive).
`C(CCCCc1nnc(N2CCCCC2)o1)CCCc1nnc(N2CCCCC2)o1`: the GI50 in experiment [1], in [2], in [3], in [4], in experiment [5] and in experiment [6] was > 100 µM (inactive) each time. The GI50 in [7], in [9], in [10], in experiment [11], in experiment [12] and in [13] was > 100 µM (inactive) throughout. The GI50 in experiment [19], in [14], in [15], in [16], in experiment [17] and in experiment [18] was > 100 µM (inactive) each time.
`Cn1c2ccccc2c2cc(N3CCCC3)c3c(c21)C(=O)N(c1ccccc1)C3=O`: the GI50 in experiment [1] was 60.8 µM (inactive); in experiment [2], > 100 µM (inactive); in [3] it was > 100 µM (inactive); in experiment [4], 33.8 µM (inactive); in experiment [5] it was > 100 µM (inactive); in experiment [6], 88.1 µM (inactive). Moreover, the GI50 in [7] is > 100 µM (inactive); in experiment [8], 72.9 µM (inactive); in experiment [9], > 100 µM (inactive); in [10] it was 86.7 µM (inactive); in [12], 38.9 µM (inactive); in experiment [13] it was > 100 µM (inactive). Further, the GI50 in [19], in experiment [14], in [15], in experiment [16], in experiment [17] and in [18] was > 100 µM (inactive) each time.
In the case of `CCOC(=O)CC[C@H](NC(=O)c1ccc(CNc2nc3cc(C(F)(F)F)ccc3nc2C(=O)OCC)cc1)C(=O)OCC`, the GI50 was 9.25 µM (inactive) in [1]; 34.7 µM (inactive) in [2]; 18.8 µM (inactive) in [3]; 7.19 µM (inactive) in [4]; 15.7 µM (inactive) in [5]; 12.4 µM (inactive) in [6]. The GI50 was 21 µM (inactive) in experiment [7]; 7.16 µM (inactive) in experiment [8]; > 89.9 µM (inactive) in experiment [9]; 17.3 µM (inactive) in experiment [10]; 13 µM (inactive) in experiment [11]; > 61.2 µM (inactive) in experiment [13]. Moreover, the GI50 in [14] is > 43.7 µM (inactive); in experiment [15], 27.9 µM (inactive); in experiment [16], 18.1 µM (inactive); in experiment [17] it was > 56.1 µM (inactive); in [18], 5.87 µM (inactive).
With `CN(Cc1cnc2nc(N)nc(N)c2n1)c1ccc(C(=O)NCCS(=O)(=O)O)cc1`, the GI50 in [1], in experiment [2], in [3], in experiment [4], in experiment [5] and in experiment [6] was > 100 µM (inactive) throughout. Moreover, the GI50 in experiment [7], in experiment [8], in experiment [9], in experiment [10], in experiment [12] and in experiment [13] was > 100 µM (inactive) in each case. For the same compound, the GI50 was > 100 µM (inactive) in experiment [19]; > 100 µM (inactive) in [14]; > 100 µM (inactive) in experiment [15]; > 100 µM (inactive) in experiment [16]; 91.6 µM (inactive) in [17]; > 100 µM (inactive) in experiment [18].
`NNC(=O)CC(=O)Nc1ccccc1Cl`: the GI50 in [1], in experiment [2], in [3], in experiment [4], in experiment [5] and in [6] was > 100 µM (inactive) throughout. Also, the GI50 in experiment [7], in [8], in [9], in [10], in experiment [11] and in experiment [12] was > 100 µM (inactive) throughout. Moreover, the GI50 in experiment [13], in [15], in [16], in experiment [17] and in experiment [18] was > 100 µM (inactive) each time.
With `CN1CN(c2ccccc2)C2(CCN(CCCSc3ccccc3NC(=O)/C=C/c3ccccc3)CC2)C1=O`, the GI50 in experiment [1] was 2.83 µM (inactive); in experiment [2], 22.6 µM (inactive); in [3], 2.15 µM (inactive); in [4] it was 7.03 µM (inactive); in [5], 17.3 µM (inactive); in experiment [6], 4.21 µM (inactive). The GI50 in experiment [7] was 2.86 µM (inactive); in experiment [8] it was 3.41 µM (inactive); in [9], 3.39 µM (inactive); in [10], 4.98 µM (inactive); in experiment [12], 3.59 µM (inactive); in experiment [13] it was 6.25 µM (inactive). Besides, the GI50 in [19] was 4.84 µM (inactive); in experiment [14], 1.71 µM (inactive); in experiment [15] it was 3.55 µM (inactive); in experiment [16], 2.54 µM (inactive); in experiment [17], 2.5 µM (inactive); in experiment [18], 7.5 µM (inactive).
